Measured values published in ChEMBL document CHEMBL6120978, “Anticancer activity of salinomycin quaternary phosphonium salts” (Eur J Med Chem, 2025).
Converted amounts (≈) assume the structure as drawn. The source made the active and inactive calls. No cut-off for these calls is given here.

How the values were obtained:
[1] = Selectivity index, ratio of IC50 for cytotoxicity against chinese hamster V79 cells to IC50 for cytotoxicity against human MDA-MB-231 cells; assay type: toxicity, cell-based; conditions: V79 cells versus MDA-MB-231 cells, read-out: Ratio IC50
[2] = Cytotoxicity against chinese hamster V79 cells incubated for 72 hrs by MTT assay; assay type: toxicity, cell-based, Cricetulus griseus
Staphylococcus aureus [3] = assay: Antimicrobial activity against Staphylococcus aureus ATCC 29213 incubated for 18 hrs by twofold microdilution method; assay type: functional
MDA-MB-231 [4] = assay: Induction of apoptosis in human MDA-MB-231 cells assessed as viable cells at IC50 incubated for 72 hrs by Annexin V-FITC staining based flow cytometry analysis (reference value: 91.53 %); assay type: functional
[5] = Selectivity index, ratio of IC50 for cytotoxicity against chinese hamster V79 cells to IC50 for cytotoxicity against human A549 cells; assay type: toxicity, cell-based; conditions: V79 cells versus A549 cells, read-out: Ratio IC50
MDA-MB-231 [6] = assay: Induction of apoptosis in human MDA-MB-231 cells assessed as necrotic cells at IC50 incubated for 72 hrs by Annexin V-FITC staining based flow cytometry analysis (reference value: 1.17 %); assay type: functional
[7] = Cytotoxicity against human HaCaT cells incubated for 72 hrs by MTT assay; assay type: toxicity, cell-based
Mitochondrial membrane [8] = assay: Induction of mitochondrial membrane potential loss in human MDA-MB-231 cells assessed as red fluorescence at IC50 incubated for 48 hrs MitoTrackerRed CMXRos staining based flow cytometry analysis (reference value: 91.1 %); assay type: cell membranes
[9] = Selectivity index, ratio of IC50 for cytotoxicity against chinese hamster V79 cells to IC50 for cytotoxicity against human SW480 cells; assay type: toxicity, cell-based; conditions: V79 cells versus SW480 cells, read-out: Ratio IC50
[10] = Selectivity index, ratio of IC50 for cytotoxicity against chinese hamster V79 cells to IC50 for cytotoxicity against human SW620 cells; assay type: toxicity, cell-based; conditions: V79 cells versus SW620 cells, read-out: Ratio IC50
Staphylococcus aureus [11] = assay: Antimicrobial activity against Staphylococcus aureus ATCC 25923 incubated for 18 hrs by twofold microdilution method; assay type: functional
MDA-MB-231 [12] = assay: Induction of apoptosis in human MDA-MB-231 cells assessed as late apoptotic cells at IC50 incubated for 72 hrs by Annexin V-FITC staining based flow cytometry analysis (reference value: 3.07 %); assay type: functional
Pseudomonas aeruginosa = assay: Antimicrobial activity against Pseudomonas aeruginosa ATCC 15442 incubated for 18 hrs by twofold microdilution method; assay type: functional
Staphylococcus aureus [13] = assay: Antimicrobial activity against Staphylococcus aureus NCTC 4163 incubated for 18 hrs by twofold microdilution method; assay type: functional
PC-3 = assay: Cytotoxicity against human PC-3 cells incubated for 72 hrs by MTT assay; assay type: functional, cell-based; conditions: PC-3, 72 h
Staphylococcus aureus [14] = assay: Antimicrobial activity against Staphylococcus aureus ATCC 6538 incubated for 18 hrs by twofold microdilution method; assay type: functional
A549 [15] = assay: Induction of apoptosis in human A549 cells assessed as late apoptotic cells at IC50 incubated for 72 hrs by Annexin V-FITC staining based flow cytometry analysis (reference value: 1.86 %); assay type: functional
Mitochondrial membrane [16] = assay: Induction of mitochondrial membrane potential loss in human A549 cells assessed as red fluorescence at IC50 incubated for 48 hrs MitoTrackerRed CMXRos staining based flow cytometry analysis (reference value: 91.1 %); assay type: cell membranes
A549 [17] = assay: Induction of apoptosis in human A549 cells assessed as early apoptotic cells at IC50 incubated for 72 hrs by Annexin V-FITC staining based flow cytometry analysis (reference value: 1.68 %); assay type: functional
[18] = Selectivity index, ratio of IC50 for cytotoxicity against chinese hamster V79 cells to IC50 for cytotoxicity against human PC-3 cells; assay type: toxicity, cell-based; conditions: V79 cells versus PC-3 cells, read-out: Ratio IC50
MDA-MB-231 [19] = assay: Induction of apoptosis in human MDA-MB-231 cells assessed as early apoptotic cells at IC50 incubated for 72 hrs by Annexin V-FITC staining based flow cytometry analysis (reference value: 4.23 %); assay type: functional
A549 [20] = assay: Induction of apoptosis in human A549 cells assessed as viable cells at IC50 incubated for 72 hrs by Annexin V-FITC staining based flow cytometry analysis (reference value: 95.49 %); assay type: functional
SW480 = assay: Cytotoxicity against human SW480 cells incubated for 72 hrs by MTT assay; assay type: functional, cell-based; conditions: SW480, 72 h
[21] = Selectivity index, ratio of IC50 for cytotoxicity against human HaCaT cells to IC50 for cytotoxicity against human PC-3 cells; assay type: toxicity, cell-based; conditions: HaCaT cells versus PC-3 cells, read-out: Ratio IC50
A549 [22] = assay: Effect on mitochondrial function in human A549 cells assessed as change in mean fluorescence intensity at IC50 incubated for 48 hrs by MitoTracker Red CMXRos staining based flow cytometry analysis; assay type: functional, cell-based
A549 [23] = assay: Induction of ROS generation of human A549 cells at IC50 incubated for 6 hrs by CellROX Green staining based spectrofluorometer analysis; assay type: functional, cell-based
[24] = test system: Staphylococcus epidermidis; assay: Antimicrobial activity against Staphylococcus epidermidis ATCC 35984 incubated for 18 hrs by twofold microdilution method; assay type: functional
A549 [25] = assay: Cytotoxicity against human A549 cells incubated for 72 hrs by MTT assay; assay type: functional, cell-based; conditions: A549, 72 h
[26] = Selectivity index, ratio of IC50 for cytotoxicity against human HaCaT cells to IC50 for cytotoxicity against human MDA-MB-231 cells; assay type: toxicity, cell-based; conditions: HaCaT cells versus MDA-MB-231 cells, read-out: Ratio IC50
A549 [27] = assay: Induction of apoptosis in human A549 cells assessed as necrotic cells at IC50 incubated for 72 hrs by Annexin V-FITC staining based flow cytometry analysis (reference value: 0.97 %); assay type: functional
[28] = Selectivity index, ratio of IC50 for cytotoxicity against human HaCaT cells to IC50 for cytotoxicity against human SW480 cells; assay type: toxicity, cell-based; conditions: HaCaT cells versus SW480 cells, read-out: Ratio IC50
Escherichia coli = assay: Antimicrobial activity against Escherichia coli ATCC 25922 incubated for 18 hrs by twofold microdilution method; assay type: functional
MDA-MB-231 [29] = assay: Cytotoxicity against human MDA-MB-231 cells incubated for 72 hrs by MTT assay; assay type: functional, cell-based; conditions: MDA-MB-231, 72 h
Mitochondrial membrane [30] = assay: Induction of mitochondrial membrane potential loss in human A549 cells assessed as green fluorescence at IC50 incubated for 48 hrs MitoTracker Green FM staining based flow cytometry analysis (reference value: 8.93 %); assay type: cell membranes
MDA-MB-231 [31] = assay: Effect on mitochondrial mass in human MDA-MB-231 cells assessed as increase in mean fluorescence intensity at IC50 incubated for 48 hrs by MitoTracker Green FM staining based flow cytometry analysis; assay type: functional, cell-based
MDA-MB-231 [32] = assay: Induction of ROS generation of human MDA-MB-231 cells at IC50 incubated for 6 hrs by CellROX Green staining based spectrofluorometer analysis; assay type: functional, cell-based
[33] = Selectivity index, ratio of IC50 for cytotoxicity against human HaCaT cells to IC50 for cytotoxicity against human SW620 cells; assay type: toxicity, cell-based; conditions: HaCaT cells versus SW620 cells, read-out: Ratio IC50
[34] = Selectivity index, ratio of IC50 for cytotoxicity against human HaCaT cells to IC50 for cytotoxicity against human A549 cells; assay type: toxicity, cell-based; conditions: HaCaT cells versus A549 cells, read-out: Ratio IC50
A549 [35] = assay: Induction of cell cycle arrest in human A549 cells assessed as change in cell population at IC50 incubated for 24 hrs by propidium iodide staining based flow cytometry analysis; assay type: functional
[36] = test system: Staphylococcus epidermidis; assay: Antimicrobial activity against Staphylococcus epidermidis ATCC 12228 incubated for 18 hrs by twofold microdilution method; assay type: functional
Mitochondrial membrane [37] = assay: Induction of mitochondrial membrane potential loss in human MDA-MB-231 cells assessed as green fluorescence at IC50 incubated for 48 hrs MitoTracker Green FM staining based flow cytometry analysis (reference value: 8.86 %); assay type: cell membranes
A549 [38] = assay: Effect on mitochondrial mass in human A549 cells assessed as increase in mean fluorescence intensity at IC50 incubated for 48 hrs by MitoTracker Green FM staining based flow cytometry analysis; assay type: functional, cell-based
SW-620 = assay: Cytotoxicity against human SW620 cells incubated for 72 hrs by MTT assay; assay type: functional, cell-based; conditions: SW-620, 72 h

With `CC[C@@H](C(=O)[C@@H](C)[C@@H](O)[C@H](C)[C@@H]1O[C@@H]([C@@H](CC)C(=O)OCc2ccccc2)CC[C@@H]1C)[C@H]1O[C@]2(C=C[C@@H](O)[C@]3(CC[C@@](C)([C@H]4CC[C@](O)(CC)[C@H](C)O4)O3)O2)[C@H](C)C[C@@H]1C` the selectivity ratio [1] was 0.3, the IC50 at 72 h [2] was 5.83 µM and the MIC (Staphylococcus aureus [3]) was 64 mg/L (≈ 76.1 µM). The Activity (MDA-MB-231 [4]) was 83.92%, the selectivity ratio [5] was 0.8 and the Activity (MDA-MB-231 [6]) was 2.17%. The IC50 at 72 h [7] was 8 µM, the Activity (Mitochondrial membrane [8]) was 79.7% and the selectivity ratio [9] was 1.7. For the same molecule, the selectivity ratio [10] was 0.8, the MIC (Staphylococcus aureus [11]) was 64 mg/L (≈ 76.1 µM) and the Activity (MDA-MB-231 [12]) was 7.41%. It also gave an MIC (Pseudomonas aeruginosa) of over 256 mg/L, an MIC (Staphylococcus aureus [13]) of 64 mg/L (≈ 76.1 µM) and an IC50 (PC-3) of 8.79 µM. For the same molecule, the MIC (Staphylococcus aureus [14]) was 32 mg/L (≈ 38 µM), the Activity (A549 [15]) was 2.76% and the Activity (Mitochondrial membrane [16]) was 74.5%. It also gave an Activity (A549 [17]) of 10.57%, a selectivity ratio [18] of 0.7 and an Activity (MDA-MB-231 [19]) of 6.5%. The Activity (A549 [20]) was 84.65%, the IC50 (SW480) was 3.48 µM and the selectivity ratio [21] was 0.9. The Activity (A549 [22]) was “inactive”, the Activity (A549 [23]) was “Active; Slight Insignificant Increase In Ros Level Was Observed” and the MIC [24] was over 256 mg/L. The IC50 (A549 [25]) was 7.52 µM, the selectivity ratio [26] was 0.5 and the Activity (A549 [27]) was 2.02%. For the same molecule, the selectivity ratio [28] was 2.3, the MIC (Escherichia coli) was over 256 mg/L and the IC50 (MDA-MB-231 [29]) was 16.5 µM. For the same molecule, the Activity (Mitochondrial membrane [30]) was 25.5%, the Activity (MDA-MB-231 [31]) was “Active; Slight Increase In Mfi Is Observed” and the Activity (MDA-MB-231 [32]) was “Active; Slight Insignificant Increase In Ros Level Was Observed”. For the same molecule, the selectivity ratio [33] was 1, the selectivity ratio [34] was 1.1 and the Activity (A549 [35]) was “inactive”. The MIC [36] was 64 mg/L (≈ 76.1 µM), the Activity (Mitochondrial membrane [37]) was 19.6% and the Activity (A549 [38]) was “Active; Slight Increase In Mfi Is Observed”. For the same molecule, the IC50 (SW-620) was 7.77 µM.
